In patent US20040034084A1, “Methods for using JNK inhibitors for treating or preventing disease-related wasting” (Celgene Corporation, priority 2002, published 2004):

What was measured:
His6-JNK2 = target: T1, His6-JNK2 (Homo sapiens, UniProt P45984); assay: JNK assay (c-Jun phosphorylation), JNK2; format: biochemical; settings: read-out: IC50 for JNK2 (c-Jun phosphorylation reduced to 50% of control)
T1 construct: His6 (N)
Description: (§1) To 10 μL of 5-amino-anthra(9,1-cd)isothiazol-6-one in 20% DMSO/80% dilution buffer containing of 20 mM HEPES (pH 7.6), 0.1 mM EDTA, 2.5 mM magnesium chloride, 0.004% Triton ×100, 2 μg/mL leupeptin, 20 mM β-glycerolphosphate, 0.1 mM sodium vanadate, and 2 mM DTT in water was added 30 μL of 50-200 ng His6-JNK1, JNK2, or JNK3 in the same dilution buffer. The mixture was pre-incubated for 30 minutes at room temperature. Sixty microliter of 10 μg GST-c-Jun(1-79) in assay buffer consisting of 20 mM HEPES (pH 7.6), 50 mM sodium chloride, 0.1 mM EDTA, 24 mM magnesium chloride, 1 mM DTT, 25 mM PNPP, 0.05% Triton ×100, 11 μM ATP, and 0.5 μCi γ-32P ATP in water was added and the reaction was allowed to proceed for 1 hour at room temperature. The c-Jun phosphorylation was terminated by addition of 150 μL of 12.5% trichloroacetic acid. After 30 minutes, the precipitate was harvested onto a filter plate, diluted with 50 μL of the scintillation fluid and quantified by a counter. The IC50 values were calculated as the concentration of 5-amino-anthra(9,1-cd)isothiazol-6-one at which the c-Jun phosphorylation was reduced to 50% of the control value. Compounds that inhibit JNK preferably have an IC50 value ranging 0.01-10 μM in this assay. 5-Amino-anthra(9,1-cd)isothiazol-6-one has an IC50 according to this assay of 1 μM for JNK2 and 400 nM for JNK3.

His6-JNK3 = target: T2, His6-JNK3 (Homo sapiens, UniProt P53779); assay: JNK assay (c-Jun phosphorylation), JNK3; format: biochemical; settings: read-out: IC50 for JNK3 (c-Jun phosphorylation reduced to 50% of control)
T2 construct: His6 (N)
T2 sequence (P53779 whole entry): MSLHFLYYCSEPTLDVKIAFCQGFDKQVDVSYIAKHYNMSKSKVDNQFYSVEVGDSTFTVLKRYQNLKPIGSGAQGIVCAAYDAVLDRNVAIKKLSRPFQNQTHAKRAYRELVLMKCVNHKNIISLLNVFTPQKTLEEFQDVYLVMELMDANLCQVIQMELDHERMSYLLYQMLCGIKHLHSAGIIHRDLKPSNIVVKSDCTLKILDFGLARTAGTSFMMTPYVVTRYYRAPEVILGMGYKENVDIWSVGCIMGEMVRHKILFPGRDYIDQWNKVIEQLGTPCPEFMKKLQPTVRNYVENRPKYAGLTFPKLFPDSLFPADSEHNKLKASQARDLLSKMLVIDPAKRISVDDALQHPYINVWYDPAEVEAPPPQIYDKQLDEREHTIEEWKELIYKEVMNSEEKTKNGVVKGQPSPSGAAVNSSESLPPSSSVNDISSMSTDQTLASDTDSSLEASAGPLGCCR
Description: as §1

p38-2 = p38-2 (Homo sapiens, UniProt Q15759); assay: Selectivity for JNK: protein kinase panel, p38-2; format: biochemical
Chain of p38-2 (Q15759 whole entry, species assumed): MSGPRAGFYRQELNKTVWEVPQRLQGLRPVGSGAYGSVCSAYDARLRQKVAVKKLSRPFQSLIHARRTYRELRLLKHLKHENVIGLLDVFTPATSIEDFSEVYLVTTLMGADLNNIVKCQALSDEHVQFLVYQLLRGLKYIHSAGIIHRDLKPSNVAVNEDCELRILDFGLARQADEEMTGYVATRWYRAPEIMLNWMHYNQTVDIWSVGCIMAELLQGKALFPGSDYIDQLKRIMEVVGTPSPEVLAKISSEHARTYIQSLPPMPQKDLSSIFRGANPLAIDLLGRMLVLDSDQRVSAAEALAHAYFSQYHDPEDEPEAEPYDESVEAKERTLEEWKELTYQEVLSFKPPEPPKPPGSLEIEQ
Description: (§2) 5-Amino-anthra(9,1-cd)isothiazol-6-one was also assayed for its inhibitory activity against several protein kinases, listed below, using techniques known to those skilled in art (See, e.g., Protein Phosphorylation, Sefton & Hunter, Eds., Academic Press, pp. 97-367, 1998).

MEK6 = target: T3, MEK6 (Homo sapiens, UniProt P52564); assay: Selectivity for JNK: protein kinase panel, MEK6; format: biochemical
T3 sequence (P52564 1-334): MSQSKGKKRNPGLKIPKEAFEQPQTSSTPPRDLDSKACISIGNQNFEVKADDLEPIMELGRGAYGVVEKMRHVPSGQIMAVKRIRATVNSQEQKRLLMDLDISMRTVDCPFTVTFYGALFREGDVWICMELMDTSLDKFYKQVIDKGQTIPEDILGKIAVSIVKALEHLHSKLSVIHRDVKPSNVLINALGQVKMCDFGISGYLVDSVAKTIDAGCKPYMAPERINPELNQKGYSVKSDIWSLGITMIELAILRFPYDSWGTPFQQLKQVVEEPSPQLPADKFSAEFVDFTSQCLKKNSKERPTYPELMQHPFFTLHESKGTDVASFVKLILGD
Description: as §2

LKK1 = target: T4, LKK1 (Homo sapiens, UniProt O15111); assay: Selectivity for JNK: protein kinase panel, LKK1; format: biochemical
T4 sequence (O15111 1-745): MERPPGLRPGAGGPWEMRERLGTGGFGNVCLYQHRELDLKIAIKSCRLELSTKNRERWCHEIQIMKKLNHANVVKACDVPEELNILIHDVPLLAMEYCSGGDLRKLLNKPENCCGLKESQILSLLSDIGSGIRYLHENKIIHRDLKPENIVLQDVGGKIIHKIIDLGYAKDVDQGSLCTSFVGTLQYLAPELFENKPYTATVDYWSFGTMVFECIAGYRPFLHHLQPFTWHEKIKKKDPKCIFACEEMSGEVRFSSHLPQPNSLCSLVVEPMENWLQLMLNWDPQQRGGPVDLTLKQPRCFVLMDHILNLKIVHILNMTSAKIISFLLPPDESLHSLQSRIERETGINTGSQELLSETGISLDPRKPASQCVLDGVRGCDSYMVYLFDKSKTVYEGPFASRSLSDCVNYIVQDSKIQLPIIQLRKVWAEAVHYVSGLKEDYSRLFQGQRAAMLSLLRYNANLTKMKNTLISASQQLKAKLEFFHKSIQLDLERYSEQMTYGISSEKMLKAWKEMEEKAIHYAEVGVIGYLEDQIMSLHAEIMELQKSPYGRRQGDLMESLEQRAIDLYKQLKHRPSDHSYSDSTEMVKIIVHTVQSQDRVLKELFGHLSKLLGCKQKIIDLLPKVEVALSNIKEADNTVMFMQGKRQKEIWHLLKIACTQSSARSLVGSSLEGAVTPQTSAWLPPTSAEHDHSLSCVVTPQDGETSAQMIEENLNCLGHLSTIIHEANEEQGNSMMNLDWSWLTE
Description: as §2

IKK2 = target: T5, IKK2 (Homo sapiens, UniProt O14920); assay: Selectivity for JNK: protein kinase panel, IKK2; format: biochemical
T5 sequence (O14920 1-756): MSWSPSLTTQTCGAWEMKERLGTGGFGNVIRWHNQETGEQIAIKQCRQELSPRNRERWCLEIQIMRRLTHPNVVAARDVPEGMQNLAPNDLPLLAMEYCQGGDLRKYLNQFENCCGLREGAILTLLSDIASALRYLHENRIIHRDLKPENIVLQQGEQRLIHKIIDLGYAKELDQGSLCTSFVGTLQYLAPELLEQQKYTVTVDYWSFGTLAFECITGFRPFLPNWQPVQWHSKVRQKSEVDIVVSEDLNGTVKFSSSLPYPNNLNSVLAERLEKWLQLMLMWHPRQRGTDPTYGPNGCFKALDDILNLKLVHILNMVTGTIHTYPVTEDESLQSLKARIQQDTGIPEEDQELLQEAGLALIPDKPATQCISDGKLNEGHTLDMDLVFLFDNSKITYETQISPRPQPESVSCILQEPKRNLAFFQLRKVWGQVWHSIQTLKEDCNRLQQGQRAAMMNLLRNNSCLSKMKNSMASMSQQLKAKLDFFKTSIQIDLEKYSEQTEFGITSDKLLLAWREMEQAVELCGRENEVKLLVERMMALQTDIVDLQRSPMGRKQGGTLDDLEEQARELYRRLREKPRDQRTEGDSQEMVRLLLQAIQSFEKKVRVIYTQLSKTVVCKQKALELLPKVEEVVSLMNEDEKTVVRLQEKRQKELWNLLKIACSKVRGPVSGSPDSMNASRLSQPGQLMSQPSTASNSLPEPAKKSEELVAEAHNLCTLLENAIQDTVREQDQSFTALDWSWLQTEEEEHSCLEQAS
Description: as §2

[1] = tested on: IL-2 production in Jurkat T cells (clone E6-1); assay: Jurkat T-cell IL-2 production assay; format: cell-based; settings: Homo sapiens, 10 h, read-out: IC50, IL-2 production reduced to 50% of control
Description: Jurkat T cells (clone E6-1) were purchased from the American Type Culture Collection of Manassas, Va. and maintained in growth media consisting of RPMI 1640 medium containing 2 mM L-glutamine (commercially available from Mediatech Inc. of Hemdon, Va.), with 10% fetal bovine serum (commercially available from Hyclone Laboratories Inc. of Omaha, Nebr.) and penicillin/streptomycin. All cells were cultured at 37° C. in 95% air and 5% CO2. Cells were plated at a density of 0.2×10^6 cells per well in 200 μL of media. Compound stock (20 mM) was diluted in growth media and added to each well as a 10× concentrated solution in a volume of 25 μL, mixed, and allowed to pre-incubate with cells for 30 minutes. The compound vehicle (dimethylsulfoxide) was maintained at a final concentration of 0.5% in all samples. After 30 minutes the cells were activated with PMA (phorbol myristate acetate, final concentration 50 ng/mL) and PHA (phytohemagglutinin, final concentration 2 μg/mL). PMA and PHA were added as a 10× concentrated solution made up in growth media and added in a volume of 25 μL per well. Cell plates were cultured for 10 hours. Cells were pelleted by centrifugation and the media removed and stored at −20° C. Media aliquots are analyzed by sandwich ELISA for the presence of IL-2 as per the manufacturers instructions (Endogen Inc. of Woburn, Mass.). […]

[2] = tested on: rat ventral mesencephalan dopaminergic neurons; assay: [3H]Dopamine cell culture assay (6-OHDA neurotoxicity); format: cell-based; settings: 6-OHDA 30 μM, uptake 22 hours after exposure
Description: Cultures of dopaminergic neurons were prepared according to a modification of the procedure described by Raymon and Leslie (J. Neurochem. 62:1015-1024, 1994). Time-mated pregnant rats were sacrificed on embyronic day 14-15 (crown rump length 11-12 mm) and the embryos removed by cesarean section. The ventral mesencephalon, containing the dopaminergic neurons, was dissected from each embryo. Tissue pieces from approximately 48 embryos were pooled and dissociated both enzymatically and mechanically. An aliquot from the resulting cell suspension was counted and the cells were plated in high glucose DMEM/F12 culture medium with 10% fetal bovine serum at a density of 1×10^5 cells/well of a Biocoat poly-D-lysine-coated 96-well plate. The day following plating was considered 1 day in vitro (DIV). Cells were maintained in a stable environment at 37° C., 95% humidity, and 5% CO2. A partial medium change was performed at 3 DIV. […]
[^3H]Dopamine uptake is used as a measure of the health and integrity of dopaminergic neurons in culture (Prochiantz et al., PNAS 76: 5387-5391, 1979). […] Briefly, cells treated with 6-OHDA in the presence and absence of 5-amino-anthra(9,1-cd)isothiazol-6-one were assessed in the uptake assay 22 hrs after exposure to 6-OHDA. […] Radioactivity was removed and the cultures were washed 3× with ice cold PBS. […]

[3] = Brain-blood plasma distribution in vivo; set-up: species or system Sprague-Dawley rats; settings: rat
Description: 5-Amino-anthra(9,1-cd)isothiazol-6-one was administered intravenously (10 mg/kg) into the veins of Sprague-Dawley rats. After 2 hr, blood samples were obtained from the animals and their vascular systems were perfused with approximately 100 mL of saline to rid their brains of blood. The brains were removed from the animals, weighed, and homogenized in a 50 mL conical tube containing 10 equivalents (w/v) of methanol/saline (1:1) using a Tissue Tearer (Fischer Scientific). The homogenized material was extracted by adding 600 μL of cold methanol to 250 μL of brain homogenate vortexed for 30 sec and subjected to centrifugation for 5 min. After centrifugation, 600 μL of the resulting supernatant was transferred to a clean tube and evaporated at room temperature under reduced pressure to provide a pellet. The resulting pellet was reconstituted in 250 μL of 30% aqueous methanol to provide a brain homogenate analysis sample. A plasma analysis sample was obtained using the brain homogenate analysis sample procedure described above by substituting plasma for brain homogenate. Standard plasma samples and standard brain homogenate samples containing known amounts of 5-amino-anthra(9,1-cd)isothiazol-6-one were also prepared by adding 5 μL of serial dilutions (50:1) of a solution of 5-amino-anthra(9,1-cd)isothiazol-6-one freshly prepared in cold ethanol to 250 μL of control rat plasma (Bioreclamation of Hicksville, N.Y.) or control brain homogenate. The standard plasma samples and standard brain homogenate samples were then subjected to the same extraction by protein precipitation, centrifugation, evaporation, and reconstitution procedure used for the brain homogenate to provide brain homogenate standard analysis samples and plasma standard analysis samples. The brain homogenate analysis samples, plasma analysis samples, and standard analysis samples were analyzed and compared using HPLC by injecting 100 μL of a sample onto a 5 μm C-18 Luna column (4.6 mm×150 mm, commercially available from Phenomenex of Torrance, Calif.) and eluting at 1 mL/min with a linear gradient of 30% aqueous acetonitrile containing 0.1% trifluoroacetic acid to 90% aqueous acetonitrile containing 0.1% trifluoroacetic acid over 8 minutes and holding at 90% aqueous acetonitrile containing 0.1% trifluoroacetic acid for 3 min. with absorbance detection at 450 nm. […] The concentration of 5-amino-anthra(9,1-cd) isothiazol-6-one in the brain and plasma was determined by comparing HPLC chromatograms obtained from the brain homogenate analysis samples and plasma analysis samples to standard curves constructed from analysis of the brain homogenate standard analysis samples and the plasma standard analysis samples, respectively. […]

[4] = Solubility in aqueous media (remark); format: physicochemical

T1 sequence (P45984 whole entry): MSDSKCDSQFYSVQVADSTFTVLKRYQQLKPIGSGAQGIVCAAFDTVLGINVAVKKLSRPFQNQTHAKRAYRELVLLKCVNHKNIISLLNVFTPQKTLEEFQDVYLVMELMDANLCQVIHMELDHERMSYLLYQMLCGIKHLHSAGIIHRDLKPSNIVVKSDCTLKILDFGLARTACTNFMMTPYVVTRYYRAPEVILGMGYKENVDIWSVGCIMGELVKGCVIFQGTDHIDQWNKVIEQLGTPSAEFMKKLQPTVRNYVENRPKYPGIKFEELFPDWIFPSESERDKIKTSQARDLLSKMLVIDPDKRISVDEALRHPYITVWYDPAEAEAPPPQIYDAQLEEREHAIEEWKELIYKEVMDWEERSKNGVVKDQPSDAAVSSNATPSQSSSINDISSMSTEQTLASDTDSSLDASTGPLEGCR

Compound `Nc1ccc2snc3c2c1C(=O)c1ccccc1-3` [5-amino-anthra(9,1-cd)isothiazol-6-one] has an IC50 (His6-JNK2) of 1000 nM, an IC50 (His6-JNK3) of 400 nM and an IC50 (p38-2) of over 30 µM. For the same compound, the IC50 (MEK6) was over 30 µM, the IC50 (LKK1) was over 30 µM and the IC50 (IKK2) was over 30 µM. For the same compound, the IC50 [1] was 30 µM, the “Protection of dopaminergic neurons from 6-OHDA ([3H]dopamine uptake)” value [2] was “protects rat ventral mesencephalan neurons from the toxic effects of 6-OHDA” and the Kp at 2 h ([3]; Sprague-Dawley, iv, 10 mg/kg intravenously, 2 hr post-dose, assuming 1 g brain tissue equivalent to 1 mL plasma, read-out: Brain-plasma concentration ratio) was about 9. The concentration at 2 h ([3]; Sprague-Dawley, plasma, iv, 10 mg/kg intravenously, 2 hr post-dose) was about 7 µM, the Brain-drug concentration ([3]; 10 mg/kg intravenously, 2 hr post-dose) was “approximately 65 nmole/g” and the Blood-brain barrier crossing ([3]; following intravenous administration) was “crosses the blood-brain barrier to a significant extent”. For the same compound, the “Solubility in aqueous media” value [4] was “limited solubility”.
